Experiments:
[1] = system: zelluläre Immunantwort (DTH-Reaktion) gegen Schafserythrozyten; experiment: Delayed type hypersensitivity (DTH) reaction against sheep erythrocytes, foot swelling in mice; assay type: in vivo, NMRI-Mäuse; conditions: relative to maximal activation by compound of Beispiel 8 = 100 %; Dosis 100 mg/kg, 1 x i.p. Tag 0
B16-Melanom = experiment: Tumour defence against B16 melanoma (lung metastases after removal of primary tumour), survival time; assay type: in vivo, C57B1/6 Mäusen; conditions: control 26 Tagen
Protocol: Bei weiblichen C57B1/6 Mäusen (10 Tiere/Gruppe) mit einem Gewicht von 18 - 20 g wurde mit 2 x 10^5 lebenden B16-Melanomzellen ein Primärtumorwachstum induziert. Nach Ausprägung einer bestimmten Tumorgröße (0.65 cm im Durchmesser) wurde der Primärtumor entfernt. Die unbehandelten Tiere starben dann an Metastasen in der Lunge. Nach der Tumorinduktion wurden die Tiere an den Tagen 3, 5, 7, 9, 11, und 13 nach Amputation des Primärtumors mit 50, 100 und 200 mg/kg der nach Beispiel 8 erhaltenen Prüfsubstanz intraperitoneal behandelt. Aus der Absterberate nach Amputation des Primärtumors durch die Entwicklung von Lungenmetastasen lassen sich entsprechend die mittleren ffberlebenszeiten berechnen. Danach sterben die Tiere der Kontrollgruppe zu 50 % nach 26 Tagen. Die mit der Prüfsubstanz behandelten Gruppen zeigten (vgl. Tabelle 10) mit den entsprechenden Dosierungen eine signifikante Erhöhung der mittleren Überlebenszeit auf 43, 40 und 35 Lage.

Candida albicans [2] = experiment: Resistance against Candida albicans infection, prophylactic treatment, survival time; assay type: in vivo, Balb/c-Mäuse; conditions: 2 x 60 mg/kg/Tag intraperitoneal over 4 days, i.v. infection 24 h later with 5 x 10^5 CFU/Maus, control 9,7 Tagen
Protocol: Balb/c-Mäuse wurden über 4 Tage in einer Dosierung von 2 x 60 mg/kg/Tag intraperitoneal mit der Prüfsubstanz (Verbindung nach Ausführungsbeispiel 8) behandelt. 24 Stunden nach der letzten Gabe der Prüfsubstanz werden diese Tiere und die Kontrolltiere, denen physiologische Kochsalzlösung in gleichen Volumina und Zeitabständen verabreicht worden war, mit Candida albicans intravenös infiziert (5 x 10^5 CFU/Maus). Aus der Absterberate nach der Infektion lassen sich entsprechend die mittleren Überlebenszeiten berechnen. Die Tiere der Kontrollgruppe sterben zu 50 % nach 9,7 Tagen, die mit der Prüfsubstanz behandelte Gruppe zeigte eine mittlere Überlebenszeit von 16,1 Tagen. In dem gewählten Applikationsschema mit den entsprechenden Dosierungen (prophylaktische Verabreichung) induziert die Prüfsubstanz eine signifikante Erhöhung der Resistenz der Balb/c-Maus gegen Candida albicans.
Wie in Experiment 3a beschrieben, wurden Balb/c-Mäuse mit den erfindungsgemäßen Verbindungen behandelt.
Wie Tabelle 9 zeigt, steigt die mittlere Überlebenszeit der Mäuse nach C. albicans Infektion, verglichen mit einer unbehandelten Kontrollgruppe, signifikant an.

Candida albicans [3] = experiment: Therapeutic treatment of a chronic Candida albicans infection (germ counts in urine and kidneys, kidney necrosis); assay type: in vivo, Balb/c-Mäuse; conditions: Tag 30, 60 mg/kg i.p. Tag 3-10
Protocol: Bei der therapeutischen Behandlung einer chronischen Candida albicans Infektion wurden weibliche Balb/c-Mäuse (15/Gruppe) am Tag 0 intravenös mit Candida albicans (1 x 10^5 CFU/Maus) infiziert. Nach erfolgter Infektion wurden die Tiere an 8 aufeinanderfolgenden Tagen (Tag 3 - 10) mit jeweils 60 mg/kg der Prüfsubstanz (Verbindung nach Ausführungsbeispiel 8) intraperitoneal behandelt. Den Kontrolltieren wurde physiologische Kochsalzlösung injiziert. An den Tagen 8, 14 und 21 wurden den Tieren Urin entnommen und die Keimzahl bestimmt. Am Tag 30 wurden die Tiere getötet und die Keimzahl und die Nekrosenbildung der Nieren bestimmt. Die Tabelle 6 zeigt, daß die Prüfsubstanz bei therapeutischer Gabe deutlich alle Parameter der chronischen Candida albicans Infektion (Keimzahl in Urin und Nieren und Nekrosenbildung) reduziert und damit die Erkrankung therapeutisch beeinflußt. Während bei den Kontrolltieren sich zu einem hohen Prozentsatz Keime im Urin nachweisen lassen, wird bei den behandelten Tieren die Keimzahl signifikant erniedrigt.
Auch die Keimbesiedlung der Nieren wird durch die Therapie von 63 % auf 27 % reduziert, bei einer gleichzeitigen Verringerung der Nekrosenbildung von 87 % auf 10 %.

[4] = system: Maus-Peritonealmakrophagen; experiment: Pinocytosis of colloidal gold (198Au) by peritoneal macrophages from treated mice; assay type: in vivo, NMRI-Mäuse; conditions: uptake of colloidal 198Au
Protocol: Hier wurde der Einfluß der nach Ausführungsbeispiel 8 erhaltenen Prüfsubstanz auf die Stimulation von Peritonealmakrophagen bei 6- 8 Wochen alten NMRI-Mäusen untersucht. Mäuseweibchen erhielten auf parenteralem oder oralem Wege die Prüfsubstanz in einer Dosis von 25 mg/kg, 50 mg/kg, 100 mg/kg und 200 mg/kg. Der Kontrollgruppe wurde gepufferte Kochsalzlösung verabreicht. Drei Tage nach den Injektionen wurden die Mäuse getötet, und es wurden die Peritonealmakrophagen der Tiere auf ihren Aktivierungszustand hin untersucht. Als Maß der Makrophagenaktivierung wurde zum einen die Sekretion der lyosomalen Enzyme (ß-Galactosidase, ß-Glucuronidase, N-Acetyl-ß-D-Glucosaminidase) bestimmt. Auf der anderen Seite konnte in vergleichbaren Makrophagenkulturen die Pinozytose durch die Aufnahme von kolloidalem Gold (^19^8Au) - wie sie dem Fachmann bekannt ist - untersucht werden. Die Höhe des oxidativen Stoffwechsels bei Makrophagen gilt als ein weiteres Maß für ihren Aktivierungszustand. Gemessen wird diese Aktivität unter Zuhilfenahme des Biolumaten durch Bestimmung der Chemolumineszenz.
Zu diesem Zweck wurden entweder in Petrischalen von 30 mm Durchmesser 3 x 10^6 Makrophagen mit 1 ml TC 199-Kulturmedium oder aber 10^6 Makrophagen mit 100 µl in Rundbogen-Polyäthylen-Röhrchen (zur Bestimmung der Chemolumineszenz) bei 5 % G02 und 37°C kultiviert.
Nach einstündiger Bebrütung wurden die Kulturen gewaschen, um schwimmende Zellen zu entfernen. Die Chemolumineszenz (Röhrchenkultur) wurde dann direkt bestimmt, während die Petrischalen erneut 24 Stunden bei 37°C bebrütet wurden und danach die Enzym- und Pinozytoseaktivität in den Kulturen bestimmt wurde. Es wurden die nachstehenden Ergebnisse erzielt.
Die quantitative Bestimmung der Pinozytoseaktivität bei mononukleären Phagozyten wurde nach der Methode von Davies et al. durchgeführt (Davies, P. Allison, A.C. und Haswell, A.D.; Biochem. Biophys. Res. Com. 52, 627, 1973). Dazu wurde radioaktives, kolloidales Gold (^198Au) mit einer Partikelgröße von 20 nm und einer spezifischen Aktivität von 4-12 mCl/mg Au benutzt. Die Ergebnisse in Tabelle 4 veranschaulichen den Effekt der nach Beispiel 8 erhaltenen Prüfsubstanz auf die Endozytoseleistung. Die Pinozytose von kolloidalem Gold (^19^8Au) durch Maus-Peritonealmakrophagen von mit der erfindungsgemäßen Verbindung behandelten Tieren ist im Vergleich mit den Makrophagen von unbehandelten Tieren signifikant und dosisabhängig erhöht.

Cc1nc(SSc2nc(C)c(CC(=O)O)s2)sc1CC(=O)O [Beispiel 8, Bis-(5-Carboxymethyl-4-methyl-thiazol-2-yl)-disulfid]
DTH-Reaktion (SRBC) [1]: 100% | mittlere Überlebenszeit (B16-Melanom; 50 mg/kg intraperitoneal on days 3, 5, 7, 9, 11, 13 after amputation of primary tumour): 43 days | mittlere Überlebenszeit (B16-Melanom; 100 mg/kg intraperitoneal on days 3, 5, 7, 9, 11, 13 after amputation of primary tumour): 40 days | mittlere Überlebenszeit (B16-Melanom; 200 mg/kg intraperitoneal on days 3, 5, 7, 9, 11, 13 after amputation of primary tumour): 35 days | mittlere Überlebenszeit (Candida albicans [2]): 16,1 Tagen | Keimbesiedlung der Nieren (Candida albicans [3]; control 63 %): 27% | Nekrosenbildung (Candida albicans [3]; kidneys, control 87 %): 10% | Pinozytoseleistung von Mausmakrophagen ([4]; 1 x 25 mg/kg intraperitoneal): 0,341 " " x 10^3 cpm | Pinozytoseleistung von Mausmakrophagen ([4]; 1 x 25 mg/kg oral): 0,272 " " x 10^3 cpm | Pinozytoseleistung von Mausmakrophagen ([4]; 1 x 50 mg/kg intraperitoneal): 0,396 " " x 10^3 cpm | Pinozytoseleistung von Mausmakrophagen ([4]; 1 x 50 mg/kg oral): 0,358 " " x 10^3 cpm | Pinozytoseleistung von Mausmakrophagen ([4]; 1 x 100 mg/kg intraperitoneal): 0,462 " " x 10^3 cpm | Pinozytoseleistung von Mausmakrophagen ([4]; 1 x 100 mg/kg oral): 0,416 " " x 10^3 cpm | Pinozytoseleistung von Mausmakrophagen ([4]; 1 x 200 mg/kg intraperitoneal): 0,587 " " x 10^3 cpm | Pinozytoseleistung von Mausmakrophagen ([4]; 1 x 200 mg/kg oral): 0,506 " " x 10^3 cpm
